Test results: EP3822285A1, “VARIANT NISIN PEPTIDES” (University College Cork-National University of Ireland, Cork, priority 2019, dated 2021)
Converted amounts (≈) assume the structure as drawn. Marks after values point to notes of the source that are not given here.

Tests used:
Assay type in all cases: cell-based
[1] = tested on: Thermus scotoductus SE-1; assay: Agar diffusion assay with cell free supernatant of producing strains; conditions: zone diameter relative to Nisin A wild type (100)
Method: (§1) Agar diffusion assays were carried out in triplicate using nisin producing and indicator (T. thermophilus HB27 and T. scotoductus Se-1) strains. Both the producer and indicator strains were cultured as per conditions described above. One ml of overnight culture of indicators were added to 50ml of molten Castenholz agar, briefly swirled and poured. Wells were made using sterile glass pipette. To generate cell free supernatant from nisin producing strains, 10 mls of overnight cultures of the strains were centrifuged at 950g for 20 mins. The cell free supernatant was transferred to a sterile tube. 50 µl of cell free supernatant was added to wells described above. Plates were incubated at 55°C for 3 days and the zone of clearance measured.
(§2) The cell free supernatant of nisin A and nisin variant producing L. lactis was used to determine the bioactivity of these lantibiotics against T. thermophilus HB27 and T. scotoductus SE-1 using agar diffusion assays, with the zone of clearance representing the bioactivity of the producing strain (i.e., representing a combination of the amount of the peptide produced and the specific activity of that peptide). […] Among the variants tested were those with altered N-terminal domains. The N-terminal domain of nisin is important for binding with the pyrophosphate moiety of lipid II to mediate pore formation in the cell membrane. Lysine (K) at position 12, which serves as a small flexible region between ring B and C, and is one of among the 5 positively charged residues (K12, K22, K34, H27, […]) of nisin A that contributes to its cationic nature and its attraction to the cell envelope.

[2] = tested on: Thermus thermophilus HB27; assay: as above; conditions: zone diameter relative to Nisin A wild type (100)
Method: as §1, §2

[3] = tested on: T. thermophilus HB27; assay: Minimum inhibitory concentration assay (Thermus); conditions: pure peptide, mean of triplicate assays
Method: (§3) Minimum inhibitory concentration (MIC) determinations for gram negative Thermus strains were carried out in triplicate in round bottom microtitre plates (Corning). 96 well microtitre plates were pre-treated with bovine serum albumin (BSA) prior to addition of the peptides. Briefly, to each well of the microtire plates 200 µl of d.H2O (filtered with 0.2 µm filter) containing 1% (w/w) BSA was added and incubated at 37°C for 30 mins. The wells were washed with 200 µl of IX phosphate buffered saline (PBS) for 2 times after removing 1% BSA d.H2O. 100 µl of growth media, i.e., Castenholz, was added to each well. […] Target strains were grown overnight as per conditions mention above, 0.5 ml of overnight was subcultured in to 10 mls of fresh Castenholz medium and allowed to grow to an OD600 of ∼0.5. 20µl of this subculture was added to 980µl of media, 150µl of this dilution added to 14.85 ml of growth media. 100µl of this dilution added to each well resulting in a final inoculum of ∼10^5 cfu/ml in 200µl. The plates were incubated at 55° C for 3 days and the MIC was determined as the lowest concentration at which no growth was visible.
(§4) The bioactivity of cell-free supernatant can be influenced by altered diffusion rates, solubility, production or specific activity. To determine to what extent, if any, the bioactivity noted above is due to increased specific activity, nisin A (control) and the derivatives were purified and their molecular weights confirmed by MALDI TOF mass spectrometry (Table: 6) (Figure: 4). These peptides were used to perform minimum inhibitory concentration assays against six Thermus strains, i.e., T. thermophilus HB27, T. scotoductus SE-1, T. rehai, T. oshimai, T. aquaticus and T. brockianus.

[4] = tested on: T. aquaticus; assay: Minimum inhibitory concentration assay (Thermus); conditions: for MIC: pure peptide, mean of triplicate assays
Method: as §3, §4

[5] = tested on: T. brockianus; assay: Minimum inhibitory concentration assay (Thermus); conditions: pure peptide, mean of triplicate assays
Method: as §3, §4

[6] = tested on: T. rehai; assay: Minimum inhibitory concentration assay (Thermus); conditions: pure peptide, mean of triplicate assays
Method: as §3, §4

[7] = tested on: T. oshimai; assay: Minimum inhibitory concentration assay (Thermus); conditions: pure peptide, mean of triplicate assays
Method: as §3, §4

[8] = tested on: T. scotoductus SE-1; assay: Minimum inhibitory concentration assay (Thermus); conditions: pure peptide, mean of triplicate assays
Method: as §3, §4

SMILES: C=C(NC(=O)[C@@H](NC(=O)[C@H](Cc1c[nH]cn1)NC(=O)[C@@H](NC(=O)[C@H](CO)NC(=O)[C@@H]1CS[C@@H](C)[C@H]2NC(=O)[C@H](C)NC(=O)[C@H](NC(=O)[C@H](CCCCN)NC(=O)[C@H](CCSC)NC(=O)[C@@H]3CCCN3C(=O)[C@@H]3CS[C@@H](C)[C@@H](NC(=O)[C@H](CCCCN)NC(=O)[C@@H]4CS[C@@H](C)[C@@H](NC(=O)[C@@H]5CSC[C@@H](NC(=O)/C(=C/C)NC(=O)[C@@H](N)[C@@H](C)CC)C(=O)N[C@@H]([C@@H](C)CC)C(=O)NC(=C)C(=O)N[C@@H](CC(C)C)C(=O)N5)C(=O)N5CCC[C@H]5C(=O)NCC(=O)N4)C(=O)NCC(=O)N[C@@H](C)C(=O)N[C@@H](CC(C)C)C(=O)N[C@@H](CCSC)C(=O)NCC(=O)N3)[C@H](C)SC[C@H](NC2=O)C(=O)N[C@@H](Cc2c[nH]cn2)C(=O)N1)[C@@H](C)CC)C(C)C)C(=O)N[C@@H](CCCCN)C(=O)O [N20P]
- % of wild type [1]: 115%
- % difference [2]: 97%
- MIC [3]: 0.0156 µM (≈ 0.0521 µg/mL)
- MIC [4]: 0.0156 µM (≈ 0.0521 µg/mL)
- MIC [5]: 0.0625 µM (≈ 0.209 µg/mL)
- MIC [6]: 0.0625 µM (≈ 0.209 µg/mL)
- MIC [7]: 0.0625 µM (≈ 0.209 µg/mL)
- MIC [8]: 0.125 µM (≈ 0.417 µg/mL)

SMILES: C=C(NC(=O)[C@@H](NC(=O)[C@H](Cc1c[nH]cn1)NC(=O)[C@@H](NC(=O)[C@H](CO)NC(=O)[C@@H]1CS[C@@H](C)[C@H]2NC(=O)[C@H](C)NC(=O)[C@H](NC(=O)[C@H](CCC(N)=O)NC(=O)[C@H](C)NC(=O)[C@@H]3CCCN3C(=O)[C@@H]3CS[C@@H](C)[C@@H](NC(=O)[C@H](CCCCN)NC(=O)[C@@H]4CS[C@@H](C)[C@@H](NC(=O)[C@@H]5CSC[C@@H](NC(=O)/C(=C/C)NC(=O)[C@@H](N)[C@@H](C)CC)C(=O)N[C@@H]([C@@H](C)CC)C(=O)NC(=C)C(=O)N[C@@H](CC(C)C)C(=O)N5)C(=O)N5CCC[C@H]5C(=O)NCC(=O)N4)C(=O)NCC(=O)N[C@@H](C)C(=O)N[C@@H](CC(C)C)C(=O)N[C@@H](CCSC)C(=O)NCC(=O)N3)[C@H](C)SC[C@H](NC2=O)C(=O)N[C@@H](Cc2c[nH]cn2)C(=O)N1)[C@@H](C)CC)C(C)C)C(=O)N[C@@H](CCCCN)C(=O)O [PAQ]
- % difference [2]: 138* (0.02) %
- MIC [3]: 0.0078 µM (≈ 0.0256 µg/mL)
- MIC [4]: 0.0156 µM (≈ 0.0511 µg/mL)
- MIC [5]: 0.0312 µM (≈ 0.102 µg/mL)
- MIC [6]: 0.0156 µM (≈ 0.0511 µg/mL)
- MIC [7]: 0.0039 µM (≈ 0.0128 µg/mL)
- MIC [8]: 0.0625 µM (≈ 0.205 µg/mL)

SMILES: C=C(NC(=O)[C@@H](NC(=O)[C@H](Cc1c[nH]cn1)NC(=O)[C@@H](NC(=O)[C@H](CO)NC(=O)[C@@H]1CS[C@@H](C)[C@H]2NC(=O)[C@H](C)NC(=O)[C@H](NC(=O)[C@H](CCCCN)NC(=O)[C@H](CCSC)NC(=O)[C@H](CC(N)=O)NC(=O)[C@@H]3CS[C@@H](C)[C@@H](NC(=O)[C@H](CC(C)C)NC(=O)[C@@H]4CS[C@@H](C)[C@@H](NC(=O)[C@@H]5CSC[C@@H](NC(=O)/C(=C/C)NC(=O)[C@@H](N)[C@@H](C)CC)C(=O)N[C@@H]([C@@H](C)CC)C(=O)NC(=C)C(=O)N[C@@H](CC(C)C)C(=O)N5)C(=O)N5CCC[C@H]5C(=O)NCC(=O)N4)C(=O)NCC(=O)N[C@@H](C)C(=O)N[C@@H](CC(C)C)C(=O)N[C@@H](CCSC)C(=O)NCC(=O)N3)[C@H](C)SC[C@H](NC2=O)C(=O)N[C@@H](Cc2c[nH]cn2)C(=O)N1)[C@@H](C)CC)C(C)C)C(=O)N[C@@H](CCCCN)C(=O)O [K12L]
- % difference [2]: 120%
- MIC [3]: 0.0156 µM (≈ 0.0521 µg/mL)
- fold better activity than nisin A [4]: 2 fold
- MIC [4]: 0.0078 µM (≈ 0.026 µg/mL)
- MIC [5]: 0.0312 µM (≈ 0.104 µg/mL)
- MIC [6]: 0.0078 µM (≈ 0.026 µg/mL)
- MIC [7]: 0.0078 µM (≈ 0.026 µg/mL)
- MIC [8]: 0.0625 µM (≈ 0.209 µg/mL)

SMILES: C=C(NC(=O)[C@@H](NC(=O)[C@H](Cc1c[nH]cn1)NC(=O)[C@@H](NC(=O)[C@H](CO)NC(=O)[C@@H]1CS[C@@H](C)[C@H]2NC(=O)[C@H](C)NC(=O)[C@H](NC(=O)[C@H](C)NC(=O)CNC(=O)[C@@H]3CCCN3C(=O)[C@@H]3CS[C@@H](C)[C@@H](NC(=O)[C@H](CCCCN)NC(=O)[C@@H]4CS[C@@H](C)[C@@H](NC(=O)[C@@H]5CSC[C@@H](NC(=O)/C(=C/C)NC(=O)[C@@H](N)[C@@H](C)CC)C(=O)N[C@@H]([C@@H](C)CC)C(=O)NC(=C)C(=O)N[C@@H](CC(C)C)C(=O)N5)C(=O)N5CCC[C@H]5C(=O)NCC(=O)N4)C(=O)NCC(=O)N[C@@H](C)C(=O)N[C@@H](CC(C)C)C(=O)N[C@@H](CCSC)C(=O)NCC(=O)N3)[C@H](C)SC[C@H](NC2=O)C(=O)N[C@@H](Cc2c[nH]cn2)C(=O)N1)[C@@H](C)CC)C(C)C)C(=O)N[C@@H](CCCCN)C(=O)O [PGA]
- % difference [2]: 113%
- MIC [3]: 0.0156 µM (≈ 0.05 µg/mL)
- MIC [4]: 0.0312 µM (≈ 0.1 µg/mL)
- MIC [5]: 0.0625 µM (≈ 0.2 µg/mL)
- MIC [6]: 0.0156 µM (≈ 0.05 µg/mL)
- MIC [7]: 0.0078 µM (≈ 0.025 µg/mL)
- MIC [8]: 0.125 µM (≈ 0.401 µg/mL)

SMILES: C=C(NC(=O)[C@@H](NC(=O)[C@H](Cc1c[nH]cn1)NC(=O)[C@@H](NC(=O)[C@H](CO)NC(=O)[C@@H]1CS[C@@H](C)[C@H]2NC(=O)[C@H](C)NC(=O)[C@H](NC(=O)[C@H](CCCCN)NC(=O)[C@H](C)NC(=O)[C@H](C)NC(=O)[C@@H]3CS[C@@H](C)[C@@H](NC(=O)[C@H](CCCCN)NC(=O)[C@@H]4CS[C@@H](C)[C@@H](NC(=O)[C@@H]5CSC[C@@H](NC(=O)/C(=C/C)NC(=O)[C@@H](N)[C@@H](C)CC)C(=O)N[C@@H]([C@@H](C)CC)C(=O)NC(=C)C(=O)N[C@@H](CC(C)C)C(=O)N5)C(=O)N5CCC[C@H]5C(=O)NCC(=O)N4)C(=O)NCC(=O)N[C@@H](C)C(=O)N[C@@H](CC(C)C)C(=O)N[C@@H](CCSC)C(=O)NCC(=O)N3)[C@H](C)SC[C@H](NC2=O)C(=O)N[C@@H](Cc2c[nH]cn2)C(=O)N1)[C@@H](C)CC)C(C)C)C(=O)N[C@@H](CCCCN)C(=O)O [AAK]
- % of wild type [1]: 132* (0.004) %
- MIC [3]: 0.0312 µM (≈ 0.101 µg/mL)
- MIC [4]: 0.0625 µM (≈ 0.203 µg/mL)
- MIC [5]: 0.0156 µM (≈ 0.0507 µg/mL)
- MIC [6]: 0.0156 µM (≈ 0.0507 µg/mL)
- MIC [7]: 0.0156 µM (≈ 0.0507 µg/mL)
- MIC [8]: 0.0625 µM (≈ 0.203 µg/mL)

SMILES: C=C(NC(=O)[C@@H](NC(=O)[C@H](Cc1c[nH]cn1)NC(=O)[C@@H](NC(=O)[C@H](CO)NC(=O)[C@@H]1CS[C@@H](C)[C@H]2NC(=O)[C@H](C)NC(=O)[C@H](NC(=O)[C@H](CCCCN)NC(=O)[C@H](C)NC(=O)[C@H](CC(N)=O)NC(=O)[C@@H]3CS[C@@H](C)[C@@H](NC(=O)[C@H](CCCCN)NC(=O)[C@@H]4CS[C@@H](C)[C@@H](NC(=O)[C@@H]5CSC[C@@H](NC(=O)/C(=C/C)NC(=O)[C@@H](N)[C@@H](C)CC)C(=O)N[C@@H]([C@@H](C)CC)C(=O)NC(=C)C(=O)N[C@@H](CC(C)C)C(=O)N5)C(=O)N5CCC[C@H]5C(=O)NCC(=O)N4)C(=O)NCC(=O)N[C@@H](C)C(=O)N[C@@H](CC(C)C)C(=O)N[C@@H](CCSC)C(=O)NCC(=O)N3)[C@H](C)SC[C@H](NC2=O)C(=O)N[C@@H](Cc2c[nH]cn2)C(=O)N1)[C@@H](C)CC)C(C)C)C(=O)N[C@@H](CCCCN)C(=O)O [M21A]
- % difference [2]: 158* (0.001) %
- MIC [3]: 0.0312 µM (≈ 0.103 µg/mL)
- MIC [4]: 0.0078 µM (≈ 0.0257 µg/mL)
- MIC [5]: 0.0625 µM (≈ 0.206 µg/mL)
- MIC [6]: 0.0312 µM (≈ 0.103 µg/mL)
- MIC [7]: 0.0078 µM (≈ 0.0257 µg/mL)
- MIC [8]: 0.0312 µM (≈ 0.103 µg/mL)
